Experimental data from patent publication US8987258B2 (priority 2008, dated 2015).

Target: T1, SIRT1 (Homo sapiens, UniProt Q96EB6)
T1 sequence (Q96EB6 1-747): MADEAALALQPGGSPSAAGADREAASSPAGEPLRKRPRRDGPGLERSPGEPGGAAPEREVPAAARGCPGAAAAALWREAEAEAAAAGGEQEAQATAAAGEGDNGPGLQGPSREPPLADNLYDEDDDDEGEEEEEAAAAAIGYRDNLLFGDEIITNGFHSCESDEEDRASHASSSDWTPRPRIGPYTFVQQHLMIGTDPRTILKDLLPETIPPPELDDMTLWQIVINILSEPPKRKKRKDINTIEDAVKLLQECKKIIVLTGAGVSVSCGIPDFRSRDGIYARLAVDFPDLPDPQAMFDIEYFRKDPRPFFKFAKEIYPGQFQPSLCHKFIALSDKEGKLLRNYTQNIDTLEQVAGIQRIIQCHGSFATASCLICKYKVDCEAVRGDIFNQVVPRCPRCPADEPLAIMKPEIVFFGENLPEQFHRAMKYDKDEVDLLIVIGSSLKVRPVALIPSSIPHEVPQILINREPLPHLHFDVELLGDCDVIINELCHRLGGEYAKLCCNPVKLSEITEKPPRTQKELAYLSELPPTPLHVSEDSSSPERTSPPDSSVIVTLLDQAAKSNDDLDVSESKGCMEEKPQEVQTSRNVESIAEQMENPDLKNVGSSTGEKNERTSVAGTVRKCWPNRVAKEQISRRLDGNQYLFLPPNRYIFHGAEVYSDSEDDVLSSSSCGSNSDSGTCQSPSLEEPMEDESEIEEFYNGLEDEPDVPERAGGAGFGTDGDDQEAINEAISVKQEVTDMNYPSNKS
Test: Mass spectrometry based SIRT1 deacetylase activation assay
Type: biochemical
Conditions: for EC1.5 μM: 0.5 μM peptide substrate, 120 μM βNAD+, 10 nM SIRT1, 25 min, 25° C.; for Emax: 25 min, mass spectrometry assay, read-out: % Fold Act. (percent maximum fold activation)
Description: A mass spectrometry based assay was used to identify modulators of SIRT1 activity. The mass spectrometry based assay utilizes a peptide having 20 amino acid residues as follows: Ac-EE-K(biotin)-GQSTSSHSK(Ac)NleSTEG-K(5TMR)-EE-NH2 (SEQ ID NO: 1) wherein K(Ac) is an acetylated lysine residue and Nle is a norleucine. The peptide is labeled with the fluorophore 5TMR (excitation 540 nm/emission 580 nm) at the C-terminus. The sequence of the peptide substrate is based on p53 with several modifications. In addition, the methionine residue naturally present in the sequence was replaced with the norleucine because the methionine may be susceptible to oxidation during synthesis and purification.
The mass spectrometry assay is conducted as follows: 0.5 μM peptide substrate and 120 μM βNAD^+ is incubated with 10 nM SIRT1 for 25 minutes at 25° C. in a reaction buffer (50 mM Tris-acetate pH 8, 137 mM NaCl, 2.7 mM KCl, 1 mM MgCl2, 5 mM DTT, 0.05% BSA). Test compounds may be added to the reaction as described above. […] After the 25 minute incubation with SIRT1, 10 μL of 10% formic acid is added to stop the reaction. Reactions are sealed and frozen for later mass spec analysis. Determination of the mass of the substrate peptide allows for precise determination of the degree of acetylation (i.e. starting material) as compared to deacetylated peptide (product).
A control for inhibition of sirtuin activity is conducted by adding 1 μL of 500 mM nicotinamide as a negative control at the start of the reaction (e.g., permits determination of maximum sirtuin inhibition). A control for activation of sirtuin activity is conducted using 10 nM of sirtuin protein, with 1 μL of DMSO in place of compound, to determine the amount of deacetylation of the substrate at a given timepoint within the linear range of the assay. This timepoint is the same as that used for test compounds and, within the linear range, the endpoint represents a change in velocity.
For the above assay, SIRT1 protein was expressed and purified as follows. […] The protein was expressed by induction with 1 mM IPTG as an N-terminal His-tag fusion protein at 18° C. overnight and harvested at 30,000×g. Cells were lysed with lysozyme in lysis buffer (50 mM Tris-HCl, 2 mM Tris[2-carboxyethyl]phosphine (TCEP), 10 μM ZnCl2, 200 mM NaCl) and further treated with sonication for 10 min for complete lysis. The protein was purified over a Ni-NTA column (Amersham) and fractions containing pure protein were pooled, concentrated and run over a sizing column (Sephadex S200 26/60 global). The peak containing soluble protein was collected and run on an Ion-exchange column (MonoQ). Gradient elution (200 mM-500 mM NaCl) yielded pure protein. This protein was concentrated and dialyzed against dialysis buffer (20 mM Tris-HCl, 2 mM TCEP) overnight. The protein was aliquoted and frozen at −80° C. until further use.

| Compound | EC1.5 μM | Emax [%] |
| --- | --- | --- |
| O=C(Nc1cccc2c(=O)cc(-c3ccccc3C(F)(F)F)oc12)c1ccncn1 [Compound 253] | A (EC1-5<1.0) | > 200 |
| O=C(Nc1cccc2c(=O)cc(-c3ccccc3Cl)oc12)c1cccc(N2CCOCC2)n1 [Compound 324] | A (EC1-5<1.0) | > 200 |
| O=C(Nc1cccc2c(=O)cc(-c3cccc(F)c3F)oc12)c1cscn1 [Compound 289] | C (EC1.5>25 μM) | < 200 |
| O=C(Nc1cccc2c(=O)cc(-c3ccccc3C(F)F)oc12)c1cccc(OCC(O)CO)n1 (stereo not drawn) [Compound 338] | A (EC1-5<1.0) | > 200 |
| O=C(Nc1cccc2c(=O)cc(-c3ccccc3C(F)(F)F)oc12)c1cccc(N2CCOCC2)n1 [Compound 322] | A (EC1-5<1.0) | > 200 |
| O=C(Nc1cccc2c(=O)cc(-c3ccccc3Cl)oc12)c1cccc(CN2CCCC2)n1 [Compound 327] | A (EC1-5<1.0) | > 200 |
| O=C(Nc1cccc2c(=O)cc(-c3cccnc3C(F)(F)F)oc12)c1cscn1 [Compound 307] | A (EC1-5<1.0) | > 200 |
| O=C(Nc1cccc2c(=O)cc(-c3ccccc3C(F)(F)F)oc12)c1ccccn1 [Compound 251] | A (EC1-5<1.0) | > 200 |
| O=C(Nc1cccc2c(=O)cc(-c3ccccc3C(F)(F)F)oc12)c1cncnc1 [Compound 260] | C (EC1.5>25 μM) | < 200 |
| O=C(Nc1cccc2c(=O)cc(-c3ccccc3Cl)oc12)c1cncc(N2CCOCC2)n1 [Compound 319] | A (EC1-5<1.0) | > 200 |
| O=C(Nc1cccc2c(=O)cc(-c3cccc(C(F)(F)F)c3)oc12)c1cccc(OC[C@@H](O)CO)n1 [Compound 244] | B (EC1.5 1-25 μM) | > 200 |

Continued, values first:

| EC1.5 μM | Emax [%] | Compound |
| --- | --- | --- |
| C (EC1.5>25 μM) | < 200 | O=C(Nc1cccc2c(=O)cc(-c3ccccc3)oc12)c1cscn1 [Compound 200] |
| C (EC1.5>25 μM) | < 200 | Cc1cnc(NC(=O)c2cccc3c(=O)cc(-c4ccccc4C(F)(F)F)oc23)s1 [Compound 276] |
| C (EC1.5>25 μM) | < 200 | Cc1cnc(NC(=O)c2cccc3c(=O)cc(-c4ccccc4S(C)(=O)=O)oc23)s1 [Compound 304] |
| C (EC1.5>25 μM) | < 200 | O=C(Nc1ccccn1)c1cccc2c(=O)cc(-c3cccc(OC(F)(F)F)c3)oc12 [Compound 211] |
| B (EC1.5 1-25 μM) | < 200 | O=C(Nc1cccc2c(=O)cc(-c3cccc(F)c3Cl)oc12)c1cnccn1 [Compound 298] |
| B (EC1.5 1-25 μM) | < 200 | O=C(Nc1cccc2c(=O)cc(-c3cccc(F)c3F)oc12)c1cnccn1 [Compound 288] |
| C (EC1.5>25 μM) | < 200 | CS(=O)(=O)c1cccc(-c2cc(=O)c3cccc(NC(=O)c4cccnc4)c3o2)c1 [Compound 242] |
| C (EC1.5>25 μM) | < 200 | O=C(Nc1cccc2c(=O)cc(-c3ccccc3OC(F)F)oc12)c1cnccn1 [Compound 263] |
| A (EC1-5<1.0) | > 200 | O=C(Nc1cccc2c(=O)cc(-c3ccccc3Cl)oc12)c1ncccn1 [Compound 335] |
| C (EC1.5>25 μM) | < 200 | Cc1cnc(NC(=O)c2cccc3c(=O)cc(-c4ccccc4C(F)F)oc23)s1 [Compound 284] |
| B (EC1.5 1-25 μM) | > 200 | O=C(Nc1cccc2c(=O)cc(-c3ccccc3C(F)(F)F)oc12)c1ccncc1 [Compound 258] |
| C (EC1.5>25 μM) | < 200 | Cc1cnc(NC(=O)c2cccc3c(=O)cc(-c4ccncc4)oc23)s1 [Compound 248, N-(5-methylthiazol-2-yl)-4-oxo-2-(pyridin-4-yl)-4H-chromene-8-carboxamide] |
| B (EC1.5 1-25 μM) | > 200 | O=C(Nc1cccc2c(=O)cc(-c3cnccc3C(F)(F)F)oc12)c1cscn1 [Compound 309] |
